Laboratory results taken from article PMC8162404, “Proteomimetic surface fragments distinguish targets by function” (Chemical Science, 2020).

What was measured:
CaM [1] = biological target: T1, CaM (Bos taurus, UniProt P62157); assay: Pull-down assay with immobilized protein and LSM libraries; format: binding, bovine; conditions: H14 library; 1:2 stoichiometry assumed; read-out: Surface mapping KD (apparent)
T1 construct: made in house; host or cells: E. coli BL21 (DE3)
Summary of the method: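 CaM buffer was 20 mM HEPES pH 7.4, 150 mM NaCl, 5 mM CaCl2. LSM sublibrary members ([…]) incubated 30 min, RT, with equimolar His-tagged protein on Co-NTA resin. HPLC-MS measured unbound probes; bound fraction relative to resin-only background gave dissociation constants.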

Gal-1 [2] = biological target: T2, Gal-1 (Homo sapiens, UniProt P09382); assay: as above; format: binding; conditions: H14 library; 1:1 binding assumed; read-out: Surface mapping KD (apparent)
T2 construct: made in house; host or cells: E. coli BL21(DE3)
T2 sequence (P09382 whole entry): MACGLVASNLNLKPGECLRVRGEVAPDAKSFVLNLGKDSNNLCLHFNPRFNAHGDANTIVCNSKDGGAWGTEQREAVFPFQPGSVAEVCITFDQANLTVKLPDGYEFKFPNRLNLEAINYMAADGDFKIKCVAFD
Summary of the method: (§1)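 Buffers were HEPES pH 7.4 with 150 mM NaCl, plus 1 mM TCEP and 1 mM CaCl2 (50 mM HEPES) for S100A4 and S100B, 1 mM TCEP for Gal-1, and no additive for RecQ-WH. Immobilized protein at 64 µM was equilibrated 30 min with the LSM sublibrary, and unbound probes were measured by LC-MS.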

S100B = biological target: T3, S100B (Homo sapiens, UniProt P04271); assay: as above; format: binding; conditions: H14 library; 1:1 binding assumed; read-out: Surface mapping KD (apparent)
T3 construct: made in house; host or cells: Escherichia coli BL21(DE3)
T3 sequence (P04271 1-92): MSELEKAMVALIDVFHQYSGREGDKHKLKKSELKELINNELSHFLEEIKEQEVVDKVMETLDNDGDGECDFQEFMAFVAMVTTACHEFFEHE
Summary of the method: as §1

CaM [3] = biological target: T1, CaM; assay: Competition pull-down with native ligand TRPV1-Ct15; format: binding, bovine; conditions: H14 library; competitor peptide 200 µM; read-out: Surface mapping KD (apparent), competition
Gal-1 [4] = biological target: T2, Gal-1; assay: Competition pull-down with lactose; format: binding; conditions: H14 library; lactose 10 mM; read-out: Surface mapping KD (apparent), competition
Description: Interactions between the H14 helical LSMs and the targets were abundant, but safe recognition of the native PPI interfaces on the targets is a criterion of druggability. To gain insight into the ability of the LSMs to detect orthosteric spots, we carried out pull-down assays in the presence of the native ligands (Table 2) of the targets (Fig. 5). For highlighting the effect of the competitor on the binding fingerprints, KD ratios and the LSM replacement percentages were calculated and are represented as heat maps (see ESI, Fig. S7 ^†). […] This could be explained by the glycan selective native recognition domain of the protein. We note that the replacement pattern for a single probe can, in theory, be complex. […] Moreover, a single probe can bind to both orthosteric and non-orthosteric spots, which limits overall displacement levels. To avoid overlooking interesting orthosteric weak binders, direct replacement levels were assessed (see ESI, Fig. S7 ^†).
Pull-down assay and data analysis
Pull-down assay. LSM sublibraries were screened separately as previously described.(2) Experiments were performed in the following buffers: (i) 20 mM pH 7.4 HEPES, 150 mM NaCl, 5 mM CaCl2 for CaM; (ii) 50 mM pH 7.4 HEPES, 150 mM NaCl, 1 mM TCEP, 1 mM CaCl2 for S100 proteins; (iii) 20 mM pH 7.4 HEPES, 150 mM NaCl, 1 mM TCEP for Gal-1 and (iv) 20 mM pH 7.4 HEPES, 150 mM NaCl for RecQ-WH. Assays were performed in paper filter spin cups (Thermo Scientific) with sample volumes of 100 µl. Hexahistidine-tagged proteins were immobilized on previously washed Co-NTA resin (TALON, Takara Bio USA, Inc., Mountain View, CA) in 64 µM final concentration. LSM sublibrary was added, in which each of the 64 library members were used at a concentration of 1 µM. Samples were incubated at room temperature for 30 min with shaking at 100 rpm. Then, samples were centrifuged at 1000 rpm for 2 min and washed with 100 µl pull-down buffer to remove unbound compounds.
The control experiments were performed using the same compounds and the resin but without the immobilized protein. In case of competitive assays, competitor peptides were added to LSM sublibrary samples in 200 µM final concentration. In the case of Gal-1, lactose (competitor) was used in a concentration of 10 mM. Experiments were performed at least twice. Mean […]
LC-MS methods and parameters. HPLC/ESI-MS analysis was used to characterize the samples from the pull-down assay. LC-MS analysis was performed with a Thermo Scientific Dionex UltiMate 3000 HPLC system interfaced to an LTQ ion trap mass spectrometer (Thermo Electron Corp., San Jose, CA, USA). Samples were injected onto an Aeris Widepore XB-C18 (250 x 4.6 mm) analytical HPLC column using gradient elution 5-80 % solution B during 25 minutes. For pull-down samples, eluent composition was 0.1% acetic acid in distilled water (Solution A) and 0.1% acetic acid in acetonitrile (solution B). Mass spectra were acquired in full scan mode from 200 to 2000 m/z range. For overlapping peaks, selective reaction monitoring (SRM) was […]
MS data analysis. Thermo Xcalibur 2.2 software was used for peak identification and integration. The majority of the foldameric fragments could be resolved independently via HPLC-MS/MS measurements based on molecular weight, MS fragmentation pattern and retention time. Peaks of some foldamers with β3-hIle or β3-hLeu in position R2 could not be resolved, these were integrated and averaged. In the processing method, each sample component was associated to a chromatographic peak based on previously identified mass (m/z) and retention time (ref (2) and Table S7-10). Using ICIS peak detection algorithm, the general detection and integration criteria were: smoothing points: 5, baseline window: 80, area noise factor: 5, peak noise factor: 10. Using these processing setups, all raw data files were reprocessed together and analyzed. Errors in peak identification during the automatic processing were corrected manually.
Calculation of the discussed parameters […]

S100A4 = biological target: T4, S100A4 (Homo sapiens, UniProt P26447); assay: Pull-down assay with immobilized protein and LSM libraries; format: binding; conditions: H14 library; 1:1 binding assumed; read-out: Surface mapping KD (apparent)
T4 construct: made in house; host or cells: Escherichia coli BL21(DE3)
T4 sequence (P26447 whole entry): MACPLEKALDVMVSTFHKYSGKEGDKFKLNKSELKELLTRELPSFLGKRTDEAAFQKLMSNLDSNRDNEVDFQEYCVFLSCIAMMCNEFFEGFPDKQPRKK
Summary of the method: as §1

Structure (SMILES)	Kd (CaM [1])	Kd (Gal-1 [2])	Kd (S100B)	Kd (CaM [3])	Kd (Gal-1 [4])	Kd (S100A4)
NC(=O)C[C@@H](CC(=O)N[C@H]1CCCC[C@@H]1C(=O)N[C@H]1CCCC[C@@H]1C(=O)N[C@H](CC(=O)N[C@H]1CCCC[C@@H]1C(N)=O)Cc1ccccc1)NC(=O)[C@H]1CCCC[C@@H]1N [H14 NF]	45 µM	264 µM	123 µM	339 µM	250 µM	–
CC[C@H](C)[C@@H](CC(=O)N[C@H]1CCCC[C@@H]1C(N)=O)NC(=O)[C@H]1CCCC[C@@H]1NC(=O)[C@H]1CCCC[C@@H]1NC(=O)C[C@H](CC(N)=O)NC(=O)[C@H]1CCCC[C@@H]1N [H14 NI]	80 µM	258 µM	–	283 µM	323 µM	472 µM
NCCCC[C@@H](CC(=O)N[C@H]1CCCC[C@@H]1C(N)=O)NC(=O)[C@H]1CCCC[C@@H]1NC(=O)[C@H]1CCCC[C@@H]1NC(=O)C[C@H](CC(N)=O)NC(=O)[C@H]1CCCC[C@@H]1N [H14 NK]	82 µM	–	270 µM	254 µM	342 µM	–
CC(C)C[C@@H](CC(=O)N[C@H]1CCCC[C@@H]1C(N)=O)NC(=O)[C@H]1CCCC[C@@H]1NC(=O)[C@H]1CCCC[C@@H]1NC(=O)C[C@H](CC(N)=O)NC(=O)[C@H]1CCCC[C@@H]1N [H14 NL]	76 µM	259 µM	–	345 µM	338 µM	472 µM
N=C(N)NCCC[C@@H](CC(=O)N[C@H]1CCCC[C@@H]1C(N)=O)NC(=O)[C@H]1CCCC[C@@H]1NC(=O)[C@H]1CCCC[C@@H]1NC(=O)C[C@H](CC(N)=O)NC(=O)[C@H]1CCCC[C@@H]1N [H14 NR]	58 µM	114 µM	128 µM	434 µM	247 µM	–
NC(=O)C[C@@H](CC(=O)N[C@H]1CCCC[C@@H]1C(=O)N[C@H]1CCCC[C@@H]1C(=O)N[C@H](CC(=O)N[C@H]1CCCC[C@@H]1C(N)=O)Cc1c[nH]c2ccccc12)NC(=O)[C@H]1CCCC[C@@H]1N [H14 NW]	38 µM	169 µM	98 µM	269 µM	185 µM	–
NC(=O)CC[C@@H](CC(=O)N[C@H]1CCCC[C@@H]1C(=O)N[C@H]1CCCC[C@@H]1C(=O)N[C@@H](CO)CC(=O)N[C@H]1CCCC[C@@H]1C(N)=O)NC(=O)[C@H]1CCCC[C@@H]1N [H14 QS]	187 µM	350 µM	–	336 µM	500 µM	–
CC(C)[C@@H](CC(=O)N[C@H]1CCCC[C@@H]1C(N)=O)NC(=O)[C@H]1CCCC[C@@H]1NC(=O)[C@H]1CCCC[C@@H]1NC(=O)C[C@H](CCC(N)=O)NC(=O)[C@H]1CCCC[C@@H]1N [H14 QV]	94 µM	349 µM	–	229 µM	372 µM	–
C[C@@H](CC(=O)N[C@H]1CCCC[C@@H]1C(N)=O)NC(=O)[C@H]1CCCC[C@@H]1NC(=O)[C@H]1CCCC[C@@H]1NC(=O)C[C@H](CO)NC(=O)[C@H]1CCCC[C@@H]1N [H14 SA]	384 µM	389 µM	–	362 µM	432 µM	–
NC(=O)[C@H]1CCCC[C@@H]1NC(=O)C[C@H](CCC(=O)O)NC(=O)[C@H]1CCCC[C@@H]1NC(=O)[C@H]1CCCC[C@@H]1NC(=O)C[C@H](CO)NC(=O)[C@H]1CCCC[C@@H]1N [H14 SE]	236 µM	326 µM	–	232 µM	415 µM	–
NC(=O)C[C@@H](CC(=O)N[C@H]1CCCC[C@@H]1C(N)=O)NC(=O)[C@H]1CCCC[C@@H]1NC(=O)[C@H]1CCCC[C@@H]1NC(=O)C[C@H](CO)NC(=O)[C@H]1CCCC[C@@H]1N [H14 SN]	184 µM	310 µM	–	279 µM	427 µM	–
C[C@@H](O)[C@@H](CC(=O)N[C@H]1CCCC[C@@H]1C(N)=O)NC(=O)[C@H]1CCCC[C@@H]1NC(=O)[C@H]1CCCC[C@@H]1NC(=O)C[C@H](CO)NC(=O)[C@H]1CCCC[C@@H]1N [H14 ST]	215 µM	–	–	307 µM	413 µM	323 µM
C[C@@H](O)[C@@H](CC(=O)N[C@H]1CCCC[C@@H]1C(=O)N[C@H]1CCCC[C@@H]1C(=O)N[C@@H](CC(=O)O)CC(=O)N[C@H]1CCCC[C@@H]1C(N)=O)NC(=O)[C@H]1CCCC[C@@H]1N [H14 TD]	314 µM	326 µM	–	232 µM	415 µM	–
C[C@@H](O)[C@@H](CC(=O)N[C@H]1CCCC[C@@H]1C(=O)N[C@H]1CCCC[C@@H]1C(=O)N[C@@H](CCC(=O)O)CC(=O)N[C@H]1CCCC[C@@H]1C(N)=O)NC(=O)[C@H]1CCCC[C@@H]1N [H14 TE]	285 µM	244 µM	–	281 µM	366 µM	–
C[C@@H](O)[C@@H](CC(=O)N[C@H]1CCCC[C@@H]1C(=O)N[C@H]1CCCC[C@@H]1C(=O)N[C@@H](CO)CC(=O)N[C@H]1CCCC[C@@H]1C(N)=O)NC(=O)[C@H]1CCCC[C@@H]1N [H14 TS]	71 µM	408 µM	–	487 µM	390 µM	–
C[C@@H](O)[C@@H](CC(=O)N[C@H]1CCCC[C@@H]1C(N)=O)NC(=O)[C@H]1CCCC[C@@H]1NC(=O)[C@H]1CCCC[C@@H]1NC(=O)C[C@@H](NC(=O)[C@H]1CCCC[C@@H]1N)[C@@H](C)O [H14 TT]	253 µM	366 µM	–	416 µM	431 µM	–
CC(C)[C@@H](CC(=O)N[C@H]1CCCC[C@@H]1C(N)=O)NC(=O)[C@H]1CCCC[C@@H]1NC(=O)[C@H]1CCCC[C@@H]1NC(=O)C[C@@H](NC(=O)[C@H]1CCCC[C@@H]1N)[C@@H](C)O [H14 TV]	113 µM	399 µM	–	376 µM	424 µM	–
C[C@@H](O)[C@@H](CC(=O)N[C@H]1CCCC[C@@H]1C(=O)N[C@H]1CCCC[C@@H]1C(=O)N[C@H](CC(=O)N[C@H]1CCCC[C@@H]1C(N)=O)Cc1ccc(O)cc1)NC(=O)[C@H]1CCCC[C@@H]1N [H14 TY]	84 µM	297 µM	180 µM	226 µM	338 µM	–
